Reference: patent publication US20250120643A1, “INGESTIBLE AND/OR IMPLANTABLE ARTICLES FOR MONITORING ELECTRICAL SIGNALS AND RELATED METHODS” (Massachusetts Institute of Technology, priority 2023, published 2025)
Entries after “also recorded” stand apart in the source; their conditions may differ.

Assays:
gastric slow wave = test: Azithromycin motility experiment: MiGUT recording in the stomach of anesthetized swine before and after intravenous prokinetic delivery; type: in vivo, Yorkshire swine; conditions: anesthetized pig
Protocol: Motivated by the capability of the MiGUT system to detect gastric slow wave activity, an experiment was designed to test if the changes or modulations in gastric motility could also be detected. The MiGUT system was again placed in the porcine stomach of an anesthetized animal and following baseline recording, azithromycin, a known prokinetic which activates motilin receptors, was intravenously delivered (1 mg/kg total dose) via ear catheter over the course of 5 minutes (FIG. 10A(i)). […] Replicates of this experiment produced similar increases in the slow wave power (FIG. 12).
All animal experiments were approved by and performed in accordance with the Committee on Animal Care at MIT. Yorkshire swine were obtained from Cummings School of Veterinary Medicine at Tufts University (Grafton, MA, USA) for in-vivo experiments. Pigs weighing approximately 60-100 kg were placed on a liquid diet for 24 hours the day before the study and were fasted overnight prior to the study. For device placement, animals were anesthetized using an intramuscular injection of midazolam 0.25 mg/kg and dexmedetomidine 0.03 mg/kg. Following sedation, animals were placed on thermal support and ophthalmic ointment was applied to both eyes. The animal was intubated and placed on isoflurane (2%) in oxygen and connected to a vital signs monitoring system. The MiGUT device was delivered orally into the stomach, using an orogastric tube and imaged using PENTAX EC-3870TLK (160 cm) to visualize the stomach with the animal in the left lateral position.
For azithromycin experiments, following ca. 1 hr of baseline recording in the anesthetized animal, 1 mg/kg animal weight of 20 mg/ml Azithromycin (Sigma-Aldrich) solution (in PBS pH adjusted with HCL, Thermofischer) was delivered via ear catheter over the course of 5 minutes. Measurements were conducted for a minimum of 45 minutes following drug delivery. Power was calculated by summing the square of the voltage measurements in a 25 minute time window. Difference in power was calculated as (Pinitial-Pfinal)/Pinitial.
Finally, to show this system can track changes in motility, Azithromycin was administered halfway during six studies. […] It was intravenously delivered at 1 mg/kg over 5 minutes through an ear catheter. […] This indicates throughout this duration of increased gastric activity (with suspected contractions), the electrodes continued to make good contact. Thus, MiGUT is shown to be able to track changes in gastric motility and maintain a reliable interface with the mucosa.

[1] = test system: gastric slow wave and all other recorded signals; test: Animal euthanasia study: MiGUT recording during administration of a barbiturate cocktail; type: in vivo, Yorkshire swine; conditions: pig, euthanization during recording; 1 ml/10 lbs
Text: In an anesthetized Yorkshire pig, the device was delivered into the stomach and the electrode is shown to unroll and conform to the gastric mucosa along the greater curvature of the stomach (FIG. 7A). The reference electrode was localized near the stomach corpus (Schematic in FIG. 8). One and a half hours of recorded data in this experiment (at 62.5 samples/s) was used to generate a heat map of electrical activity vs time and channel (FIG. 7B(i)). Initial electrical activity seen in all channels following device placement (t=0 to 500 seconds) is most likely due to mechanical stimulation as a consequence of endoscopic visualization following device deployment. Channels near the pylorus (FIG. 7B(ii), channels 0-2) measured large amplitude, prolonged waveforms with periods of ca. 500 seconds with approximately 6 total cycles. […] These signals were also observed in separate experiments using the MiGUT system in different animals (N=5, Table 1).
For non-survival procedures, the animal was sedated with intramuscular injection of Telazol (tiletamine/zolazepam) 5 mg/kg and xylazine 2 mg/kg and euthanized using Fatal Plus (sodium pentobarbital), 1 ml/10 lbs. Heart rate and respiration rate are assessed via vitals monitor to ensure that the pig has been euthanized. […]

`CC[C@H]1OC(=O)[C@H](C)[C@@H](O[C@H]2C[C@@](C)(OC)[C@@H](O)[C@H](C)O2)[C@H](C)[C@@H](O[C@@H]2O[C@H](C)C[C@H](N(C)C)[C@H]2O)[C@](C)(O)C[C@@H](C)CN(C)[C@H](C)[C@@H](O)[C@]1(C)O` [azithromycin] was tested, and the “changes in the respiration and heart rate frequency bands” value (gastric slow wave; 1 mg/kg i.v. over 5 minutes through ear catheter, six studies) was “no significant changes”, the “amplitude of the slow wave” value (gastric slow wave; 1 mg/kg i.v. over 5 minutes through ear catheter, six studies, seen in five of the recording channels) was “significant increase” and the “power in the EKG or respiratory frequency windows” value (gastric slow wave; 1 mg/kg i.v. over 5 minutes, 25 minutes after vs 25 minutes prior to dosing) was “no significant change in power”. For the same compound, the “power in the slow wave frequency range” value (gastric slow wave; 1 mg/kg i.v. via ear catheter over 5 minutes, 25 minutes after vs 25 minutes prior to dosing, seen in 5 of the 8 recording channels) was “noticeable increase in power”.

`CCCC(C)C1(CC)C(=O)N=C([O-])NC1=O.[Na+]` (centres unmarked) [barbiturate cocktail, sodium pentobarbital] was tested, and the “effect on waveforms recorded by MiGUT (slow wave and all other signals)” value [1] was “terminated; also recorded: cessation of all waveforms”.
